According to ChEMBL document CHEMBL1201862, “PubChem BioAssay data set” (2004):
Activity calls are given as the source filed them.

Assays:
Procathepsin L = Procathepsin L (Homo sapiens, UniProt P07711); assay: cathepsin L inhibitors, dose response, counter-screen for M1/M17 aminopeptidase inhibitor project, biochemical, QFRET, 1536-well (AID 2214)
Aspartyl aminopeptidase = Aspartyl aminopeptidase (Plasmodium falciparum 3D7, UniProt Q8I2J3); assay: Counterscreen for inhibitors of M1 and M17 aminopeptidases: QFRET-based biochemical high throughput dose response assay for inhibitors of the Plasmodium falciparum M18 Aspartyl Aminopeptidase (PFM18AAP). [Related PubChem assays: 1619 (Screening assay (M17LAP inhibitors).), 1445 (Screening assay (M1AAP inhibitors).)]
Chain of Aspartyl aminopeptidase (Q8I2J3 whole entry): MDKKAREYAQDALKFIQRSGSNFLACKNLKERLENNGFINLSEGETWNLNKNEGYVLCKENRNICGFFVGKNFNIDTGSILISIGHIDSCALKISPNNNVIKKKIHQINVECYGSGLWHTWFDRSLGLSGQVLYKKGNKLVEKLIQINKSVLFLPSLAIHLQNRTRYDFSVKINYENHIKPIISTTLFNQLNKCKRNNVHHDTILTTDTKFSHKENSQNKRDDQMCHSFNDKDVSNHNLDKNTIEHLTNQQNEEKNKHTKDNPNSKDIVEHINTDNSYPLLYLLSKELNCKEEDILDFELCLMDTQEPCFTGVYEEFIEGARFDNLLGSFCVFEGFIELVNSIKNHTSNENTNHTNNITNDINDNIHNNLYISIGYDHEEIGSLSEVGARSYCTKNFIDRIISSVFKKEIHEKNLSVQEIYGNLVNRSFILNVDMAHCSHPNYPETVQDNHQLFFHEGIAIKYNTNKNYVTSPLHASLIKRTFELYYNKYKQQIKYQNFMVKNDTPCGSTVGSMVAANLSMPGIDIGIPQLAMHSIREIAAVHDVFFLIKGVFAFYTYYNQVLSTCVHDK

Aminopeptidase N = target: T1, Aminopeptidase N (Plasmodium falciparum FcB1/Columbia, UniProt O96935); assay: P. falciparum M1AAP inhibitors, biochemical, fluorogenic H-Leu-NHMec substrate, 1536-well (AID 1445); set-up: species or system Plasmodium falciparum 3D7, 3D7
T1 sequence (O96935 whole entry): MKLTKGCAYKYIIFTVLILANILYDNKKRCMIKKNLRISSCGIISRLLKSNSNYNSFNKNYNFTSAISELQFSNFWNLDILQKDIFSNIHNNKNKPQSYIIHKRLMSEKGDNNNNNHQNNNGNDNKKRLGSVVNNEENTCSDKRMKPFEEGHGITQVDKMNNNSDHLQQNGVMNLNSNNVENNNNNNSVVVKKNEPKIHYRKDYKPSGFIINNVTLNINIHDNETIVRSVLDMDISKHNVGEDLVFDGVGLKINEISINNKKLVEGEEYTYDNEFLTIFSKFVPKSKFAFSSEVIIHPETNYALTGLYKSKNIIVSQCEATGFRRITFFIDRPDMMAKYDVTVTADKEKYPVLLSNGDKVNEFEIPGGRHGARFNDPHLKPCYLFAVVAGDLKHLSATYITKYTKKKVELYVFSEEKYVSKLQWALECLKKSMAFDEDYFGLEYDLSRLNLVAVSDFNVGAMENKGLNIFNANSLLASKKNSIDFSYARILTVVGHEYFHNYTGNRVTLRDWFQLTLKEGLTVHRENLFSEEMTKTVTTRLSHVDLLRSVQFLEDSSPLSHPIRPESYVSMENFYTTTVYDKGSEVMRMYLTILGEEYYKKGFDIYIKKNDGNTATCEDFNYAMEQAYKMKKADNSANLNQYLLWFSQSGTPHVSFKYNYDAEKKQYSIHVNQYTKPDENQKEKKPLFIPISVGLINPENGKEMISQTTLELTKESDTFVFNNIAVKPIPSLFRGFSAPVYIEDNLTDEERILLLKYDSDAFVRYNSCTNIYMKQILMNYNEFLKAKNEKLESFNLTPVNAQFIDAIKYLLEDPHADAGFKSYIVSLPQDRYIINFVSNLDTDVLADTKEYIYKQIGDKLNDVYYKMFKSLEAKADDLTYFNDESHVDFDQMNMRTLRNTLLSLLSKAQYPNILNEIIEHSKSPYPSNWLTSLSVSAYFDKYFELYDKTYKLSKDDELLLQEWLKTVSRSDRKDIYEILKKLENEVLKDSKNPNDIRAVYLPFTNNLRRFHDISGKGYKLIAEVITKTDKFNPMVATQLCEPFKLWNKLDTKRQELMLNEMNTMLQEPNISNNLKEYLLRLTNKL

[1] = HEp-2 cell cytotoxicity, dose response, cytotoxicity control for RSV inhibitor project, HTS (AID 2410); assay type: functional; settings: human respiratory syncytial virus
[2] = inhibitors of Bluetongue virus cytopathic effect, confirmation, arbovirus, BSR cells (AID 1250); assay type: functional;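 also: protection from viral cytopathic effect measured as cell viability by ATP luminescence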
[3] = target: Long-chain-fatty-acid--AMP ligase FadD28 (Mycobacterium tuberculosis, UniProt P9WQ59); assay: Fluorescence polarization aasay to screen for inhibitors that compete for the binding of FadD28 to a bisubstrate Measured in Biochemical System Using Plate Reader - 2147-01_Inhibitor_Dose_CherryPick_Activity.; assay type: functional, Mycobacterium tuberculosis H37Rv
Chain of Long-chain-fatty-acid--AMP ligase FadD28 (P9WQ59 whole entry): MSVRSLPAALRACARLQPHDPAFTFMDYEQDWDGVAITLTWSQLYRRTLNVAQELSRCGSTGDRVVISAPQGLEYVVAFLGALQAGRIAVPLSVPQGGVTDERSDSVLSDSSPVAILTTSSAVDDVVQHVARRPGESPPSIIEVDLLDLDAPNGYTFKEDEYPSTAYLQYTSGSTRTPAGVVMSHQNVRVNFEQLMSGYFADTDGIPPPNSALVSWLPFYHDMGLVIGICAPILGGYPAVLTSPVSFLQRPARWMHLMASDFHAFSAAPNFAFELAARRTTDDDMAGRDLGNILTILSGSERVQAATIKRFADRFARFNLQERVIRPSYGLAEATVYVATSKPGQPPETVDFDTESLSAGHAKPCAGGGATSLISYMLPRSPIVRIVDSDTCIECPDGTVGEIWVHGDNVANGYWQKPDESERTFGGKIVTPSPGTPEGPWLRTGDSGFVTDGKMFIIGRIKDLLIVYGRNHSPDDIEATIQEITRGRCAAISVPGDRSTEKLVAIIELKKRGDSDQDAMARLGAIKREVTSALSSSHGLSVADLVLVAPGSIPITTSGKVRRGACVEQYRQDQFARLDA

[4] = target: Sphingosine 1-phosphate receptor 2 (Homo sapiens, UniProt O95136); assay: Dose Response Cell Based Assay for Agonists of the S1P2 Receptor of Purchased Analogues. [Related pubchem assays: 729, 843, 854, 736 ]; assay type: functional
Chain of Sphingosine 1-phosphate receptor 2 (O95136 whole entry): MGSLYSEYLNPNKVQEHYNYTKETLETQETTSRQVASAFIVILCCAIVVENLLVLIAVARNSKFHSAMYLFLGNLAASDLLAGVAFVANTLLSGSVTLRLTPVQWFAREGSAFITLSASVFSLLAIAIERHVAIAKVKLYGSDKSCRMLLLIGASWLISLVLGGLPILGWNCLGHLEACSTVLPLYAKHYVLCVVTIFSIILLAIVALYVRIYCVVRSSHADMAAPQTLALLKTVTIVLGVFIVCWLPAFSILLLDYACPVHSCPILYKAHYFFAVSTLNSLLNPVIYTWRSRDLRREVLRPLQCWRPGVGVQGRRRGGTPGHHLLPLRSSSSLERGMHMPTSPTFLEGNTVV

[5] = target: T2, Neuropeptide Y receptor type 2 (Homo sapiens, UniProt P49146); assay type: functional, cell-based;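 also: HEK293 cells expressing the receptor and a CNG channel; stimulus was NPY near EC95 followed by isoproterenol to raise cAMP; antagonist potency measured as restoring cAMP signal that NPY suppresses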
T2 sequence (P49146 whole entry): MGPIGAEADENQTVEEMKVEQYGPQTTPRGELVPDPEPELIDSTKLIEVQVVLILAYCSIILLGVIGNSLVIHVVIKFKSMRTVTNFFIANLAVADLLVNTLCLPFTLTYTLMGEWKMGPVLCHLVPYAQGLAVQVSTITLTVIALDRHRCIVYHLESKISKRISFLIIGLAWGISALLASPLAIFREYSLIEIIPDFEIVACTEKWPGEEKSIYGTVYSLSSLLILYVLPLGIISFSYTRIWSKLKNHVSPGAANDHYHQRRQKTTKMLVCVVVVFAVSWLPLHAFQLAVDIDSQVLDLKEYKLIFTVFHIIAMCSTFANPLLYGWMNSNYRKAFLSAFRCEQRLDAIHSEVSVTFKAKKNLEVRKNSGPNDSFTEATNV

[6] = target: T3, Neuropeptide Y receptor type 1 (Homo sapiens, UniProt P25929); assay type: functional;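 also: HEK293 cells with a CNG channel challenged with NPY then isoproterenol; potency as antagonist that reverses NPY suppression of cAMP signal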
T3 sequence (P25929 whole entry): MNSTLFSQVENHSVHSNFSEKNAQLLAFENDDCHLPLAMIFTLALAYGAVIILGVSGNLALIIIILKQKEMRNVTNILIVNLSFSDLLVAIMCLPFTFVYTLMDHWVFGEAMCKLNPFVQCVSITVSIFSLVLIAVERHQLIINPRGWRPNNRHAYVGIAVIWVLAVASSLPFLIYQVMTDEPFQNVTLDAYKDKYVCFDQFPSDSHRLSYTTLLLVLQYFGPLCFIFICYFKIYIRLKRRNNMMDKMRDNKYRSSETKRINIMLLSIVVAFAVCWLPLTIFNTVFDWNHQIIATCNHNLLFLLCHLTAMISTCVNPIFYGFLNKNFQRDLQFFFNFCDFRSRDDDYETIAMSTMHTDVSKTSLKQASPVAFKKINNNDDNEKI

[7] = Luminescence Cell-Based Dose Response HTS to Identify Inhibitors of 5'UTR Stem-Loop Driven Prion Protein mRNA Translation in H4 Neuroglioblastoma Cells. [Related pubchem assays: 1827 (Project Summary), 1813 (Primary HTS)]; assay type: functional
HT-1080 = assay: cytotoxicity in HT1080 fibrosarcoma cells, cell-based, fluorescence readout (AID 620); assay type: functional; settings: Homo sapiens
[8] = Luminescence Cell-Based Dose Confirmation HTS to Identify Inhibitors of Polyadenylation.; assay type: functional
[9] = target: Luciferin 4-monooxygenase (Photinus pyralis, UniProt P08659); assay: Counter Screen for Luciferase-based Assay Positives. [Related pubchem assays: 620, 618, 411 ]
Chain of Luciferin 4-monooxygenase (P08659 whole entry): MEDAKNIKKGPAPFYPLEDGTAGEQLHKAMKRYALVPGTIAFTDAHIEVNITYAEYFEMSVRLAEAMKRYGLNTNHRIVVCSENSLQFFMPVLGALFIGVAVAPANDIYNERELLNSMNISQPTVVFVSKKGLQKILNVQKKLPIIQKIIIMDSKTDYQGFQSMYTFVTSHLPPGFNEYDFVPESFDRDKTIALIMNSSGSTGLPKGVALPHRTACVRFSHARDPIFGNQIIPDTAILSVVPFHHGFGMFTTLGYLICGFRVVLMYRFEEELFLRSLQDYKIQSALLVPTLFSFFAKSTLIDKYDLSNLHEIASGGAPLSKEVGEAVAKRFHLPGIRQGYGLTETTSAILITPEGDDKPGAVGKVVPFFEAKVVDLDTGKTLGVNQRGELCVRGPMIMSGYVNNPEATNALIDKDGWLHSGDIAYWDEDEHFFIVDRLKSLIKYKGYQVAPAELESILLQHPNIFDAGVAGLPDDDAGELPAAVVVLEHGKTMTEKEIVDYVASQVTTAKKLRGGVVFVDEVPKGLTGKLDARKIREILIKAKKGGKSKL

[10] = inhibitors of SNCA 5'UTR-driven reporter translation, confirmation, H4 neuroglioma cells, luminescence (AID 1988); assay type: functional, cell-based

Chain of Procathepsin L (P07711 whole entry): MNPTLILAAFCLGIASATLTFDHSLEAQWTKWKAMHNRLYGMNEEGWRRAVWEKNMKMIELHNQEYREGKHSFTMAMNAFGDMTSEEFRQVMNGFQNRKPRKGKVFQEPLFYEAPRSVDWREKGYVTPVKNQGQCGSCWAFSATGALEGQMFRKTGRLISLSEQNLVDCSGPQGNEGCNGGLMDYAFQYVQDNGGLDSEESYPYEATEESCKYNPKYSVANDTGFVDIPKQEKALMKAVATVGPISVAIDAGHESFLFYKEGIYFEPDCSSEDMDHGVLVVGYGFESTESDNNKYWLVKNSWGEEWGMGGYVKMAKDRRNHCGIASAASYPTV

Compound: O=C(O)CCC(=O)N1N=C(c2c(-c3ccccc3)c3cc(Cl)ccc3[nH]c2=O)CC1c1ccccc1 (stereo not given)
- IC50 (Procathepsin L): > 59.6 µM (not active)
- IC50 (Aspartyl aminopeptidase): > 73.5 µM (not active)
- IC50 (Aminopeptidase N): 4.6 µM (active)

Compound: CCC1=NN2C(=N)/C(=C\c3cccn3-c3c(C)cccc3C)C(=O)N=C2S1
- CC50 [1]: 19.5 µM (active)
- IC50 [2]: 38.4 µM (active)
- IC50 (cells): 20.7 µM (active)
- AC50 [3]: > 100 µM (inactive)

Compound: Cc1cc(C(=O)COC(=O)Cn2c(=O)oc3ccccc32)c(C)n1Cc1ccccc1
- EC50 [4]: > 30 µM (not active)

Compound: O=C(C1CCN(Cc2ccc(Cl)cc2)CC1)N1CCN(C(c2ccccc2)c2ccccc2)CC1
- IC50 [5]: > 35 µM (not active)
- IC50 [6]: > 35 µM (not active)

Compound: O=c1c2sc(-c3ccccc3)cc2nc2n1CCC2
- EC50 [7]: 11.8 µM (inconclusive)
- EC50 (HT-1080): > 50 µM (not active)
- EC50 [8]: > 120 µM (not active)
- EC50 [9]: < 0.2 µM (active)
- EC50 [10]: 8.3 µM (active)
